Common to all, as to experiment: isopeptidase assay, p-nitroaniline release, A405
Common to all, as to type: biochemical, Hirudo medicinalis
Holding throughout (details): pH 5.5, no NaCl (stated for activity), 37 °C

The subject of one data set is T1, mlDL-Ds1.
T1 construct: gene Ds-1; ~16 kDa band printed for Ds3; monomer by gel filtration; synthetic codon-optimised gene
The source says: isopeptidase assay, p-nitroaniline release, A405 on mlDL-Ds1

A further data set deals with T2, mlDL-Ds3.
T2 construct: gene Ds-3; ~16 kDa; monomer by gel filtration; synthetic codon-optimised gene
The source says:
isopeptidase assay, p-nitroaniline release, A405 on mlDL-Ds3

Substrate in data set [1]: N[C@@H](CCC(=O)Nc1ccc([N+](=O)[O-])cc1)C(=O)O
The source says: isopeptidase assay, p-nitroaniline release, A405 on mlDL-Ds2

A word on the Km: it is the concentration of substrate that gives half-maximal velocity. Consider `N[C@@H](CCC(=O)Nc1ccc([N+](=O)[O-])cc1)C(=O)O` [L-γ-Glu-pNA], for which the Km in the data set on mlDL-Ds1 was determined as 40 µM; in the data set with mlDL-Ds3, 20 µM.

B1: mlDL-Ds2 (Hirudo medicinalis) (protein)
chain: QFTDSCLRCICKVEGCDSQIGKCGMDVGSLSCGPYQIKKPYWIDCGKPGGGYESCTKNKACSETCVRAYMKRYGTFCTGGRTPTCQDYARIHNGGPRGCKSSATVGYWNKVQKCLR
notes: monomer by gel filtration; synthetic codon-optimised gene
In general, kcat refers to the number of substrate molecules converted per active site and unit of time at saturation. B1: in data set [1], the Km is 50 µM and the kcat was 0.08 s⁻¹.

The values above are taken from publication PMC4654880, “A comparison of the enzymatic properties of three recombinant isoforms of thrombolytic and antibacterial protein—Destabilase-Lysozyme from medicinal leech” (BMC Biochemistry, 2015).
